Laboratory results reported in ChEMBL document CHEMBL5537159, “Discovery and SAR of JTE-151: A Novel RORγ Inhibitor for Clinical Development” (J Med Chem, 2024).

Legend:
[1] = Toxicity in CHL cells assessed as chromosomal aberration at 30 to 50 ug/ml incubated for 24 hrs in absence of S9 fraction; format: cell-based, Cricetulus griseus; settings: chinese hamster, dose 30-50 µg/ml
[2] = Genotoxicity in Salmonella typhimurium TA1537 at 23 to 750 ug in absence of S9 fraction by bacterial reverse mutation test; format: toxicity, Salmonella enterica subsp. enterica serovar Typhimurium; settings: in vivo; dose 23-750 µg
[3] = Lipophilicity, logD of compound by RP-HPLC analysis; format: physicochemical
[4] = molecular target: 5-hydroxytryptamine receptor 2A (Homo sapiens, UniProt P28223); experiment: Inhibition of human 5-HT2A receptor
5-hydroxytryptamine receptor 2A, sequence (P28223 whole entry): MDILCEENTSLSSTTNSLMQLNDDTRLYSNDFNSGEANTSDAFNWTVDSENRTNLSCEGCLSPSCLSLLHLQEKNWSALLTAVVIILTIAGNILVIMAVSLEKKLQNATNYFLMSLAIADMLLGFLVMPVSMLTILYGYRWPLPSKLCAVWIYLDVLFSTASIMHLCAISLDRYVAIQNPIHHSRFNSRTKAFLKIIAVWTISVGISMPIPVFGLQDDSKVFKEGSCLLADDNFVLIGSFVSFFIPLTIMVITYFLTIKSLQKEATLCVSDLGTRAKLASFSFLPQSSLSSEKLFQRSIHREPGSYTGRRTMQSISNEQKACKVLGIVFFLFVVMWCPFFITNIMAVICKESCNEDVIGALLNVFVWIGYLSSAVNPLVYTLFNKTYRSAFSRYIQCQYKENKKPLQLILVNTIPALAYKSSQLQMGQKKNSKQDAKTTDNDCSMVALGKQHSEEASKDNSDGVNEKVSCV

[5] = Tmax in human at 30 […], po administered as single dose and measured upto 144 hrs; format: ADME, organism-based; settings: in vivo
[6] = molecular target: Beta-3 adrenergic receptor (Homo sapiens, UniProt P13945); experiment: Inhibition of human adrenergic beta3 receptor
Beta-3 adrenergic receptor, sequence (P13945 whole entry): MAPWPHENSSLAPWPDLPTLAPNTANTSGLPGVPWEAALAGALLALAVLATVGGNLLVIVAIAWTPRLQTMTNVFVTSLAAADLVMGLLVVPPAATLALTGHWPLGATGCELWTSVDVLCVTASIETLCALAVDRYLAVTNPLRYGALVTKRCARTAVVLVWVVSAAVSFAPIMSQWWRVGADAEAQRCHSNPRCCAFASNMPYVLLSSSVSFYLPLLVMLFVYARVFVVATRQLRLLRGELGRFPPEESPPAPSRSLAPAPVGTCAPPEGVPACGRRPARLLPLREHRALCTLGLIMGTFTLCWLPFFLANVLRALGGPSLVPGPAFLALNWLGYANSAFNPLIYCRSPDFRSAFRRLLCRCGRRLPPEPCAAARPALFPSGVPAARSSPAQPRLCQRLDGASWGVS

[7] = MRT in C57BL/6J mouse at 3 mg/kg, po administered as single dose and measured after 24 hrs; format: ADME, organism-based; settings: in vivo
[8] = Elimination half life in human at 1000 mg/kg, po administered as single dose and measured upto 144 hrs; format: ADME, organism-based; settings: in vivo, read-out: beta t1/2 (converted)
[9] = Selectivity ratio of agonist activity at human FXR to inhibition of RORgamma (unknown origin)
[10] = molecular target: T1, Nuclear receptor ROR-gamma (Homo sapiens, UniProt P51449); experiment: Inhibition of GAL4 DNA-binding domain fused RORgamma (unknown origin) transfected in CHO-K1 cells incubated for 2 days by luciferase assay; format: cell-based
T1 sequence (P51449 whole entry): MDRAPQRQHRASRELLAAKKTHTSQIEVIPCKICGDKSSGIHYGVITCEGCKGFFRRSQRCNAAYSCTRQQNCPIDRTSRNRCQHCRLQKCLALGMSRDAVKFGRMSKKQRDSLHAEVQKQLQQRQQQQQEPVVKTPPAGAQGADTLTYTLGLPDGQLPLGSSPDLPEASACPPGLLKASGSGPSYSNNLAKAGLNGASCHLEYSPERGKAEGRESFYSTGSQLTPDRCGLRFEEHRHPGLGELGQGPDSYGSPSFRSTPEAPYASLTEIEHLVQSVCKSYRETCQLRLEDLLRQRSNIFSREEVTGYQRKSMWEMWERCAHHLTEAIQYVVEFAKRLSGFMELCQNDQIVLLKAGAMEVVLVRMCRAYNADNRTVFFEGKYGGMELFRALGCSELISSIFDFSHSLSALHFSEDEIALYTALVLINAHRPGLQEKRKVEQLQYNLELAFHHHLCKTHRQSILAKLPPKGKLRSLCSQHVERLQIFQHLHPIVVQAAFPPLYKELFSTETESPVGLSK

[11] = Elimination half life in Beagle dog at 1 mg/kg, iv administered as single dose and measured after 24 hrs; format: ADME, organism-based, Canis lupus familiaris; settings: in vivo, read-out: beta t1/2 (converted)
[12] = AUClast in human at 100 […], po administered as single dose and measured upto 144 hrs; format: ADME, organism-based; settings: in vivo
[13] = Genotoxicity in Salmonella typhimurium TA1537 at 47 to 1500 ug in presence of S9 fraction by bacterial reverse mutation test; format: toxicity, subcellular, Salmonella enterica subsp. enterica serovar Typhimurium; settings: dose 47-1500 µg
[14] = Cmax in human at 600 […], po administered as single dose and measured upto 144 hrs; format: ADME, organism-based; settings: in vivo
[15] = Inhibition of rat glutamate receptor
[16] = molecular target: 5-hydroxytryptamine receptor 1A (Homo sapiens, UniProt P08908); experiment: Inhibition of human 5-HT1A receptor
5-hydroxytryptamine receptor 1A, sequence (P08908 whole entry): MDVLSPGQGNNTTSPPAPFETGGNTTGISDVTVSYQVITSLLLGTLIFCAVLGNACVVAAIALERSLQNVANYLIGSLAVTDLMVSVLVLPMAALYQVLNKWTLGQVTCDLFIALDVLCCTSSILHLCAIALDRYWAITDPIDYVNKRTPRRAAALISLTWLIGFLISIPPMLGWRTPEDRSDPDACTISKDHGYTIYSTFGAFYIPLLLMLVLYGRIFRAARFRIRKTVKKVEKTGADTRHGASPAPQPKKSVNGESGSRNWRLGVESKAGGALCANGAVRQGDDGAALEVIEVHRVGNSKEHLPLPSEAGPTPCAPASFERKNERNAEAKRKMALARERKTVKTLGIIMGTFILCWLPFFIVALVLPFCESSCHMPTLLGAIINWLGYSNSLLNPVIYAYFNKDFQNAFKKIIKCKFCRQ

[17] = Cmax in human at 100 […], po administered as single dose and measured upto 144 hrs; format: ADME, organism-based; settings: in vivo
[18] = AUClast in human at 30 mg/kg, po administered as single dose and measured upto 144 hrs; format: ADME, organism-based; settings: in vivo
[19] = Genotoxicity in Salmonella typhimurium TA98 at 47 to 1500 ug in presence of S9 fraction by bacterial reverse mutation test; format: toxicity, subcellular, Salmonella enterica subsp. enterica serovar Typhimurium; settings: dose 47-1500 µg
[20] = Tmax in human at 100 […], po administered as single dose and measured upto 144 hrs; format: ADME, organism-based; settings: in vivo
[21] = Selectivity ratio of agonist activity at human RARalpha to inhibition of RORgamma (unknown origin)
[22] = Selectivity ratio of antagonist activity at mouse GR to inhibition of RORgamma (unknown origin)
[23] = molecular target: Adrenergic receptor alpha-1 (Rattus norvegicus, UniProt P15823+P23944+P43140); experiment: Inhibition of rat adrenergic alpha1 receptor; format: protein assay
[24] = Genotoxicity in Salmonella typhimurium TA98 at 23 to 750 ug in absence of S9 fraction by bacterial reverse mutation test; format: toxicity, Salmonella enterica subsp. enterica serovar Typhimurium; settings: in vivo; dose 23-750 µg
[25] = Genotoxicity in Salmonella typhimurium TA100 at 23 to 750 ug in absence of S9 fraction by bacterial reverse mutation test; format: toxicity, Salmonella enterica subsp. enterica serovar Typhimurium; settings: in vivo; dose 23-750 µg
[26] = Selectivity ratio of antagonist activity at human PPARdelta to inhibition of RORgamma (unknown origin)
[27] = Selectivity ratio of agonist activity at human PR to inhibition of RORgamma (unknown origin)
[28] = AUClast in human at 1000 mg/kg, po administered as single dose and measured upto 144 hrs; format: ADME, organism-based; settings: in vivo
[29] = Toxicity in CHL cells assessed as chromosomal aberration at 60 to 80 ug/ml incubated for 6 hrs in absence of S9 fraction; format: cell-based, Cricetulus griseus; settings: chinese hamster, dose 60-80 µg/ml
Histamine H1 receptor = Histamine H1 receptor (Homo sapiens, UniProt P35367); experiment: Inhibition of human histamine H1 receptor
Histamine H1 receptor, sequence (P35367 whole entry): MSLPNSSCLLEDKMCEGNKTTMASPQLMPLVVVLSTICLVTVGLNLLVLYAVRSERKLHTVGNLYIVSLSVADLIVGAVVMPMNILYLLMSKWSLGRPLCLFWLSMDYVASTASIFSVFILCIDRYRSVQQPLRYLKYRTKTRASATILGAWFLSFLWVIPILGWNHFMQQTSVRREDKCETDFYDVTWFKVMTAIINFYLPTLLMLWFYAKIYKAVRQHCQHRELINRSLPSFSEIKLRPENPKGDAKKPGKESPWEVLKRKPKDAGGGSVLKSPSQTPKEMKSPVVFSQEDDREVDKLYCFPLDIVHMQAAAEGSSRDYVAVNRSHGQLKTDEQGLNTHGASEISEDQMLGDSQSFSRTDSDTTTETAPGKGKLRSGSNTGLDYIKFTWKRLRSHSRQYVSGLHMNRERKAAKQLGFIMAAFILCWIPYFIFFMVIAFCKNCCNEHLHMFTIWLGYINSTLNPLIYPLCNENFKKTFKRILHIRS

[30] = Genotoxicity in Salmonella typhimurium TA100 at 23 to 750 ug in presence of S9 fraction by bacterial reverse mutation test; format: toxicity, subcellular, Salmonella enterica subsp. enterica serovar Typhimurium; settings: dose 23-750 µg
Cannabinoid receptor 1 = Cannabinoid receptor 1 (Homo sapiens, UniProt P21554); experiment: Inhibition of human CB1 receptor
Cannabinoid receptor 1, sequence (P21554 whole entry): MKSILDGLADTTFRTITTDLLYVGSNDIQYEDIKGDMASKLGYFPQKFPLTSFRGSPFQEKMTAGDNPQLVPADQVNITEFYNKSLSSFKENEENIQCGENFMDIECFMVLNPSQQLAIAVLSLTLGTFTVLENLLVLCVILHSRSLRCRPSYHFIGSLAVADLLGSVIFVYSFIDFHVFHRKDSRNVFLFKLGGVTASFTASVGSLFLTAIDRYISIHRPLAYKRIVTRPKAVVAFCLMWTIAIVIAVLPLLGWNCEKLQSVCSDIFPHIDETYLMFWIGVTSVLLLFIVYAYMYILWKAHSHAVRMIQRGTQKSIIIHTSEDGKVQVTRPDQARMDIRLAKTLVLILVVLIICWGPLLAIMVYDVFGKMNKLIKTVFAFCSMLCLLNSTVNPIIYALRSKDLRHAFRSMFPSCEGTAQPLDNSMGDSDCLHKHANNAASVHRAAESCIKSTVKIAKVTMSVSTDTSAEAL

Cytochrome P450 2C19 = Cytochrome P450 2C19 (Homo sapiens, UniProt P33261); experiment: Inhibition of CYP2C19 in human liver microsomes; format: ADME, Microsome
Cytochrome P450 2C19, sequence (P33261 whole entry): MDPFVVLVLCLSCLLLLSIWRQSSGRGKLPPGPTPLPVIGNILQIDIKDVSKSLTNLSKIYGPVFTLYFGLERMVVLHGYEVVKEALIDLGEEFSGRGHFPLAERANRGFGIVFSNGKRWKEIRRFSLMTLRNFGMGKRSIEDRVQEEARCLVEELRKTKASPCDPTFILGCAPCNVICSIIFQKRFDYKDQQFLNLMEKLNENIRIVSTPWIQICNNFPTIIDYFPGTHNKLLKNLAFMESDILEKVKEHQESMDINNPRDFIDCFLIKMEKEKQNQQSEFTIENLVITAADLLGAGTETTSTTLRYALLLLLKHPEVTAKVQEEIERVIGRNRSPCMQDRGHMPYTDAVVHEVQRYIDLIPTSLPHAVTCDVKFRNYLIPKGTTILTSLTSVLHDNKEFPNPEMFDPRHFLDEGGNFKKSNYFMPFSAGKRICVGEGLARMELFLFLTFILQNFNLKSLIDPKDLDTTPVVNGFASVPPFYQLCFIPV

[31] = AUClast in human at 600 mg/kg, po administered as single dose and measured upto 144 hrs; format: ADME, organism-based; settings: in vivo
[32] = Genotoxicity in Salmonella typhimurium TA1535 at 188 to 5000 ug in absence of S9 fraction by bacterial reverse mutation test; format: toxicity, Salmonella enterica subsp. enterica serovar Typhimurium; settings: in vivo; dose 188-5000 µg
[33] = molecular target: Beta-1 adrenergic receptor (Homo sapiens, UniProt P08588); experiment: Inhibition of human adrenergic beta1 receptor
Beta-1 adrenergic receptor, sequence (P08588 whole entry): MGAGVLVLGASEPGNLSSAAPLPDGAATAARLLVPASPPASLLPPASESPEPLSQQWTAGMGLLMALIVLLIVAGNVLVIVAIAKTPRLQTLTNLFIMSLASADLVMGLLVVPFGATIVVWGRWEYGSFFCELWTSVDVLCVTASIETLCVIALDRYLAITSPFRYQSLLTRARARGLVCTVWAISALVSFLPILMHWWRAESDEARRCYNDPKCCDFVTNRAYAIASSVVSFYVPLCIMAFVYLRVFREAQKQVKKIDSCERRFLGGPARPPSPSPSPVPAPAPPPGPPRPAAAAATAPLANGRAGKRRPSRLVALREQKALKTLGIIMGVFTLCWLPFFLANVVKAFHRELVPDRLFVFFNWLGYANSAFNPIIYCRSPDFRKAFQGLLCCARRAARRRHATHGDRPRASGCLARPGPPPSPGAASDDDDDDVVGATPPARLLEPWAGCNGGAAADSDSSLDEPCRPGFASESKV

[34] = Selectivity ratio of antagonist activity at human RXRalpha to inhibition of RORgamma (unknown origin)
[35] = molecular target: 5-hydroxytryptamine receptor 3A (Homo sapiens, UniProt P46098); experiment: Inhibition of human 5-HT3 receptor
5-hydroxytryptamine receptor 3A, sequence (P46098 whole entry): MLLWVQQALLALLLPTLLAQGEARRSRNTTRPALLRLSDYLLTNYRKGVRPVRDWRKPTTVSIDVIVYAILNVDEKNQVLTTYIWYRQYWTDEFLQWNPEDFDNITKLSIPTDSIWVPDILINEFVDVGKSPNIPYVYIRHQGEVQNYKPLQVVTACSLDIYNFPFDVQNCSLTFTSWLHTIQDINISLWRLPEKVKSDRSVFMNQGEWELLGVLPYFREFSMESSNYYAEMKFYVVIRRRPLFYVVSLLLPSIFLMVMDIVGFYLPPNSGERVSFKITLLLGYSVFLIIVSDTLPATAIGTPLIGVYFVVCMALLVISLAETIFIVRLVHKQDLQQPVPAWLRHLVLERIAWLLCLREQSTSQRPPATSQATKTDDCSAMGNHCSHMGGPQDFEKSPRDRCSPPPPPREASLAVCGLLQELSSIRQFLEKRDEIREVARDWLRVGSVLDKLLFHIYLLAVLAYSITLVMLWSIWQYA

[36] = Elimination half life in human at 100 […], po administered as single dose and measured upto 144 hrs; format: ADME, organism-based; settings: in vivo, read-out: beta t1/2 (converted)
[37] = Selectivity ratio of antagonist activity at human RARalpha to inhibition of RORgamma (unknown origin)
[38] = Inhibition of rat Muscarinic receptor
[39] = Cmax in human at 200 […], po administered as single dose and measured upto 144 hrs; format: ADME, organism-based; settings: in vivo
[40] = Selectivity ratio of agonist activity at human ERalpha to inhibition of RORgamma (unknown origin)

## Cc1ccc(NC(=O)C[C@H](CCC(=O)O)c2noc([C@H]3C[C@@H](CC(C)(C)C)C3)c2C2CC2)c(Cl)c1
[1]
  Activity: Non-Toxic
[2]
  Activity: Non-Toxic
[3]
  logD: 5.1
[4]
  IC50: > 10 µM
[5]
  Tmax: 2.77 h
[6]
  IC50: > 10 µM
[7]
  MRT: 5.8 h
[8]
  half-life: 7.91 h
[9]
  Selectivity ratio: > 100
[10]
  EC50: 0.013 µM
[11]
  half-life: 5.5 h
[12]
  AUC(0-t) at 144 h: 21200 ng·h/mL
[13]
  Activity: Non-Toxic
[14]
  Cmax: 26400 ng/mL
[15]
  IC50: > 10 µM
[16]
  IC50: > 10 µM
[17]
  Cmax: 3810 ng/mL
[18]
  AUC(0-t) at 144 h: 6030 ng·h/mL
[19]
  Activity: Non-Toxic
[20]
  Tmax: 3.03 h
[21]
  Selectivity ratio: > 100
[22]
  Selectivity ratio: > 100
[23]
  IC50: > 10 µM
[24]
  Activity: Non-Toxic
[25]
  Activity: Non-Toxic
[26]
  Selectivity ratio: > 100
[27]
  Selectivity ratio: > 100
[28]
  AUC(0-t) at 144 h: 241000 ng·h/mL
[29]
  Activity: Non-Toxic
Histamine H1 receptor
  IC50: > 10 µM
[30]
  Activity: Non-Toxic
Cannabinoid receptor 1
  IC50: > 10 µM
Cytochrome P450 2C19
  IC50: > 10 µM
[31]
  AUC(0-t) at 144 h: 140000 ng·h/mL
[32]
  Activity: Non-Toxic
[33]
  IC50: > 10 µM
[34]
  Selectivity ratio: > 100
[35]
  IC50: > 10 µM
[36]
  half-life: 13.2 h
[37]
  Selectivity ratio: > 100
[38]
  IC50: > 10 µM
[39]
  Cmax: 8790 ng/mL
[40]
  Selectivity ratio: > 100
